Among the data in the OPERA property sets (Mansouri et al. 2018) are logP values, retold here.

As a reminder, the logP is the decadic logarithm of the partition coefficient of the neutral form, usually between octanol and water. The low end stands for a more hydrophilic compound, the high end for a more lipophilic compound.

Structures are written as SMILES.

In turn, `C=CCN(N=O)C(=O)N(CCCCC(NC(C)=O)C(=O)Nc1ccccc1)Cc1ccccc1` (stereo unspecified) gave a log partition coefficient (logP) of 2.7.
Molecule `COc1ccc2cc(CC(=O)OCC(=O)NC3CCCCC3)ccc2c1` showed a logP of 3.99.
The value for `[O-][n+]1nc2ccccc2c2ccccc21` was 2.24; that for `C=CCC(C)OC(=O)Nc1ccc(OCC)c(OCC)c1` (stereo unspecified) was 3.37.
On to `C=CCOc1ccc2c(c1)[n+]([O-])nc(N)[n+]2[O-]`, for which the logP worked out at 0.76.
Take `CNC(=O)COC(=O)Cc1ccc2cc(OC)ccc2c1`: the lipophilicity (logP) was 2.19.
Take `CCCOc1ccccc1NC(=O)OC1CCCCC1CN(C)C` (stereo unspecified): the logP is 4.44.
The value for `C=CCN(N=O)C(=O)N(CCC)CCCC(NC(C)=O)C(=O)NCc1ccccc1` (stereo unspecified) was 2.16; that for `CCCCc1ccc(CO)cc1` was 3.
With `CNC(=O)NCCCCC(NC(C)=O)C(=O)NCc1ccccc1` (stereo unspecified) the figure was 0.06; with `COc1ccc2cc(CC(=O)OCC(N)=O)ccc2c1`, 1.88; with `CCCCCCCOc1ccccc1NC(=O)OC1CCCCC1CN(C)C` (stereo unspecified), 6.3.
The value for `C=CCNC(=O)NCCCC(NC(C)=O)C(=O)NCc1ccccc1` (stereo unspecified) was 0.68.
On to `CC(C(N)=O)c1ccc(-n2sc3ccccc3c2=O)cc1` (stereo unspecified), for which the logP was found to be 2.07.
The value for `CCC(C)c1ccc(OC(=O)N(C)C)cc1` (stereo unspecified) was 3.62; that for `CN(C)C(=O)Oc1ccc(C#N)cc1` was 1.21; that for `CCCN(CCCC(NC(C)=O)C(=O)NCc1ccccc1)C(=O)NC` (stereo unspecified) was 1.47.
In turn, `CC(=O)NC(CCCCNC(=O)N(C)N=O)C(=O)NCc1ccccc1` (stereo unspecified) showed a logP of 1.18.
The value for `CCCc1ccc(OC(=O)N(C)C)cc1` was 3.15; that for `CCC(C(=O)OC)c1ccc(-n2sc3ccccc3c2=O)cc1` (stereo unspecified) was 3.91.
With `C#CCOc1cc(NC=NOCOC)cc(Cl)c1OCC#C` the figure was 2.2; with `CCOc1ccc(NC(=O)OC(C)CF)cc1OCC` (stereo unspecified), 2.59.
The value for `CCCCOc1ccccc1NC(=O)OC1CCCCC1CN(C)C` (stereo unspecified) was 5.01.
As for `CCCN(CCCCC(NC(C)=O)C(=O)NCc1ccccc1)C(=O)N(C)N=O` (stereo unspecified), the log partition coefficient (logP) was 1.73.
The value for `COC(=O)Cc1ccc(-n2sc3ccccc3c2=O)cc1` was 2.83.
With `ClC1=C(Cl)C2C(C1Cl)C1(Cl)C(Cl)C(Cl)C2(Cl)C1(Cl)Cl` (stereo unspecified) the figure was 6.08; with `O=C1NC(Cc2c[nH]c3ccccc23)C(=O)NC1Cc1ccc(O)cc1` (stereo unspecified), 1.05.
The value for `CC(=O)NC(CCCNC(=O)N(C)N=O)C(=O)NCc1ccccc1` (stereo unspecified) was 0.98; that for `COC1N(C2CC(N=[N+]=[N-])C(CO)O2)C(=O)NC(=O)C1(C)I` (stereo unspecified) was 1.03; that for `c1ccc(CC2CC3=NOS4=C3C(=NO4)C2)cc1` was 2.8.
As to `CN(C)C(=O)Oc1cccc(N(C)C)c1`, the logP was 1.93.
The value for `CCCc1ccc(CO)cc1` was 2.67; that for `C#CCC(C)OC(=O)Nc1ccc(OCC)c(OCC)c1` (stereo unspecified) was 2.86; that for `CC(=O)CC(=O)Nc1n[n+]([O-])c2ccccc2[n+]1[O-]` was -1.4.
The value for `C=CCN1CCCN(CC=C)C1=S` was 2.08.
With `C#CCOc1ccc(NC=NOCC)cc1OCC#C` the figure was 1.9; with `N#CN=C1NCCN1Cc1ccc(Cl)nc1`, 0.77.
`CN(C)C(=O)Oc1ccc(Br)cc1`: the logP stood at 2.46.
With `Nc1ncn(C2CC(O)C(CO)O2)c(=O)n1` (stereo unspecified) the figure was -1.89.
The value for `CC(=O)Oc1cccc(C(=O)O)c1` was 1.49; that for `[O-][n+]1ccc(Cl)cc1` was -0.44; that for `CCN(CCO)C(=O)COC(=O)Cc1ccc2cc(OC)ccc2c1` was 1.98.
With `CCCCCCCCn1c(N)c(N)c(=O)[nH]c1=O` the figure was 2.05; with `C#CCON=CNc1cc(Cl)c(OCC#C)c(OCC#C)c1`, 2.3.
As for `COc1ccc2cc(CC(=O)OCC(=O)N(CCO)CCO)ccc2c1`, the logP is 1.41.
In turn, `CCCCCCn1c(N)c(N)c(=O)[nH]c1=O` yielded a logP of 1.01.
The molecule `CCCN(CCCl)c1c([N+](=O)[O-])cc(C(F)(F)F)cc1[N+](=O)[O-]` had a log partition coefficient (logP) of 4.63.
With `CCCCCOc1ccccc1NC(=O)OC1CCCCC1CN(C)C` (stereo unspecified) the figure was 5.46.
With `CCN(CC)C(=O)COC(=O)Cc1ccc2cc(OC)ccc2c1` the figure was 3.05.
The value for `CCOC(=O)C(C)Oc1ccc(-n2sc3ccccc3c2=O)cc1` (stereo unspecified) was 3.89; that for `COC1N(C2CC(N=[N+]=[N-])C(CO)O2)C(=O)NC(=O)C1(C)Cl` (stereo unspecified) was 0.84; that for `CCOc1ccccc1NC(=O)OC1CCCCC1CN(C)C` (stereo unspecified) was 4.14.
The molecule `C#CCNC(=O)NCCCC(NC(C)=O)C(=O)NCc1ccccc1` (stereo unspecified) came in with a logP of -0.31.
The value for `O=C1NC(=O)C(c2ccccc2)(c2ccccc2)N1S(=O)(=O)c1ccc(Cl)cc1` was 4.48; that for `CN(C)C(=O)Oc1ccc(F)cc1` was 1.58.
The value for `CCCCNC(=O)COC(=O)Cc1ccc2cc(OC)ccc2c1` was 3.57; that for `O=C1NC(=O)C(c2ccccc2)(c2ccccc2)N1S(=O)(=O)c1ccc([N+](=O)[O-])cc1` was 4.04; that for `Cc1ccc2c(c1)[n+]([O-])nc(N)[n+]2[O-]` was 0.2.
The value for `COC(=O)NC(=S)Nc1ccccc1N` was 0.7; that for `O=c1[nH]c2ccccc2n1C1CCNCC1` was 1.14; that for `CCOC(=O)Cc1ccc(-n2sc3ccccc3c2=O)cc1` was 3.33.
With `CCOc1ccc(NC(=O)OC(C)CCl)cc1OCC` (stereo unspecified), the logP amounted to 2.97.
With `Nc1n[n+]([O-])c2ccc(Cl)cc2[n+]1[O-]` the figure was 0.41; with `C#CCNC(=O)NCCCCC(NC(C)=O)C(=O)NCc1ccccc1` (stereo unspecified), 0.23.
With `COc1cccc(OC)c1C(=O)Nc1nnc(-c2ccc(Cl)cc2)s1` the figure was 3.96; with `C#CCCOC(=O)Nc1ccc(OCC)c(OCC)c1`, 2.54; with `CC=CCOCN(C(=O)CCl)c1c(CC)cccc1CC`, 3.51.
The molecule `COc1ccc2cc(CC(=O)OCC(=O)N3CCOCC3)ccc2c1` showed a logP of 2.13.
With `CC1CC2=NOS3=C2C(=NO3)C1` the figure was 1.5; with `CCCN(CCCCC(NC(C)=O)C(=O)NCc1ccccc1)C(=O)NC` (stereo unspecified), 1.6.
With `CC(=O)NC(CCCNC(=O)NCCCl)C(=O)NCc1ccccc1` (stereo unspecified) the figure was 0.34.
With `CCOC(=O)CCCOc1ccc(-n2sc3ccccc3c2=O)cc1` the figure was 3.96; with `CC1CCC2C(C)COC3OC4(C)CCC1C32OO4` (stereo unspecified), 3.16.
As to `O=S1CC2=NOS3=C2C(=NO3)C1`, the logP was -0.3.
The value for `NC(=O)Cc1ccc(-n2sc3ccccc3c2=O)cc1` was 1.72.
The molecule `CCCCCCOc1ccccc1NC(=O)OC1CCCCC1CN(C)C` (stereo unspecified) gave a logP of 5.9.
The value for `C=CCN(N=O)C(=O)NCCCC(NC(C)=O)C(=O)NCc1ccccc1` (stereo unspecified) was 1.3; that for `C=CCN(CC=C)C(=O)COC(=O)Cc1ccc2cc(OC)ccc2c1` was 3.67.
In turn, `CC(=O)c1cc[n+]([O-])cc1` yielded a logP of -0.93.
With `C#CCOc1cc(NC=NOCC=C)cc(Cl)c1OCC#C` the figure was 2.7; with `C#CCOc1cc(NC=NOC)cc(Cl)c1OCC#C`, 2.3; with `CC(C)c1ccc(OC(=O)N(C)C)cc1`, 3.04.
With `Cc1ccnc(N)c1` the figure was 0.56; with `C1SCC2=NOS3=C2C1=NO3`, 1.2; with `Nc1n[n+]([O-])c2cc(OCC(O)CO)ccc2[n+]1[O-]` (stereo unspecified), -1.1.
The value for `CNC(=O)N(CCCC(NC(C)=O)C(=O)NCc1ccccc1)Cc1ccccc1` (stereo unspecified) was 1.86; that for `Cn1c(N)c(N)c(=O)[nH]c1=O` was -1.4; that for `CC(=O)NC(CCCCNC(=O)NCCCl)C(=O)NCc1ccccc1` (stereo unspecified) was 0.61.
In the case of `C=CCNC(=O)NCCCCC(NC(C)=O)C(=O)NCc1ccccc1` (stereo unspecified), the logP came to 0.76.
In the case of `COc1cccc(OC)c1C(=O)Nc1nnc(-c2ccc(Br)cc2)s1`, the logP is 3.92.
The molecule `CCOC(=O)NC1CCc2cc(OC)c(OC)c(OC)c2-c2ccc(OC)c(=O)cc21` (stereo unspecified) showed a logP of 2.3.
The molecule `COc1ccc2cc(CC(=O)OCC(=O)N(C)C)ccc2c1` came in with a logP of 2.23.
The value for `O=[N+]([O-])C=C1CCCN1Cc1ccc(Cl)nc1` was 0.68.
Regarding `CCOC(=O)C(CC)c1ccc(-n2sc3ccccc3c2=O)cc1` (stereo unspecified), the logP worked out at 4.11.
The value for `COc1cccc(OC)c1C(=O)Nc1nnc(-c2ccc(F)cc2)s1` was 3.5; that for `CN(C)C(=O)Oc1cccc(Cl)c1` was 2.33.
The value for `COc1ccccc1NC(=O)OC1CCCCC1CN(C)C` (stereo unspecified) was 3.55; that for `Cc1cc2cc3c(C)cc(=O)oc3c(C)c2o1` was 3.14.
Regarding `CCOC(=O)COc1ccc(-n2sc3ccccc3c2=O)cc1`, the logP worked out at 2.96.
The value for `CC(=O)Oc1ccc(C(=O)O)cc1` was 1.48.
With `CCOC(=O)CCOc1ccc(-n2sc3ccccc3c2=O)cc1` the figure was 3.59; with `COP(=O)(CC(C)=O)OC`, -0.86; with `CCCN1CCN(CCC)C1=S`, 1.86.
With `CC(=O)Nc1n[n+]([O-])c2ccccc2[n+]1[O-]` the figure was -0.6.
`Cc1cc[n+]([O-])cc1`: the logP was -0.88.
The value for `COC(=O)c1ccc(-n2sc3ccccc3c2=O)cc1` was 3.49.
As for `CC1(C)CC2=NOS3=C2C(=NO3)C1`, the logP turned out to be 1.9.
With `C#CCON=CNc1cc(F)c(OCC#C)c(OCC#C)c1` the figure was 1.8.
The value for `CCCC(=O)Oc1ccccc1C(=O)O` was 2.2; that for `C#CCOc1cc(NC=NOCOC)cc(F)c1OCC#C` was 1.7; that for `CCc1ccc(OC(=O)N(C)C)cc1` was 2.55.
The value for `CC(C)(C)c1ccc(CC2CCCC2(O)Cn2cncn2)cc1` (stereo unspecified) was 3.97; that for `CCCN(CCC)C(=O)COC(=O)Cc1ccc2cc(OC)ccc2c1` was 4.04; that for `COc1ccc(-c2nnc(NC(=O)c3c(OC)cccc3OC)s2)cc1` was 3.56.
Molecule `C=CCNC(=O)N(CCC)CCCC(NC(C)=O)C(=O)NCc1ccccc1` (stereo unspecified) yielded a logP of 1.21.
With `COc1cccc(OC)c1C(=O)Nc1nnc(-c2ccc(C)cc2)s1` the figure was 3.85.
